Patent publication US7943660B2, “Inhibitors of the LFA-1/ICAM-1 interaction and uses thereof” (Dominion Pharmakine S.L., priority 2005, dated 2011)

Key:
[1] = system: B16 melanoma (B16M) cell adhesion to VEGF-induced HSE cells mediated by LFA-1; test: B16M cell adhesion to VEGF-treated hepatic sinusoidal endothelial (HSE) cells in vitro; assay type: cell-based, murine; details: HSE pre-incubated with 10 μg/ml HC0303 30 min prior to 10 ng/ml rmVEGF for 8 hours; FIG. 5; P<0.001
Description: (§1) Time-dependent adhesion assays was carried out on a quantitative basis according to previous validated bioassays (Vidal-Vanaclocha et al., Cancer Research, 1994, 54(10):2667-72). For tumor cell pre-labelling, they were allowed to accumulate the non-fluorescent sterase substrate BCECF-AM and to hydrolyze it to its fluorescent product BCECF which becomes trapped inside living cells. To do this, 50 μg of BCECF-AM were diluted in dry DMSO (5 μl) and DME medium until […] (40 μg/ml).
(§2) Tumor cells (5×10^6) were incubated in BCECF-AM solution at 37° C. for 30 min. After gently washing, tumor cells were resuspended in fresh medium (DMEM without phenol red) at a concentration of 2×10^6 cells/ml.
(§3) Twenty-four hours post-plating, primary cultured hepatic sinusoidal endothelial (HSE) cells were also used for adhesion assay. To determine the basal autofluorescence per well, plates were read on a fluorometric microplate reader (Multiskan Ascent, Thermo Labsystems) using 485/22 nm excitation and the 530/25 nm emission filter. Then, 2×10^5 labeled tumor cells were added to each well of HSE cells and to collagen pre-coated control wells.
(§4) However, in order to determine the exact number of cells in each well, co-culture plates were read for a second time. Then, plates were incubated at 37° C. […]

[2] = system: 51b murine colon carcinoma (51b-CC) cell adhesion to HSE cells; test: 51b colon carcinoma cell adhesion to HSE cells; assay type: cell-based; details: 51b cells, FIG. 6A
Description: as §1, §2, §3, §4

[3] = system: VEGF production by B16M cells; test: Measurement of VEGF production by B16M cells in response to soluble ICAM-1 and H2O2 (ELISA); assay type: cell-based, murine; details: 10 μg/ml HC0303 30 min prior to 200 ng/ml sICAM-1, then DMEM or 10 μM H2O2 for 2 hours; FIG. 8; P<0.01
Description: Cultured B16M cells were incubated for 30 min with 200 ng/ml soluble ICAM-1 prior to either basal medium (DMEM) or 10 μM H2O2. Some cells were pre-incubated with 1 μg/ml anti-murine LFA-1 monoclonal antibody or 10 μg/ml compound HC0303 for 30 min before ICAM-1 addition. After 2 hours, supernatants were collected, centrifuged at 1,000 g for 10 min and subjected to 0.22 μm filtration.
The addition of either 1 μg/ml anti-murine LFA-1 monoclonal antibody or 10 μg/ml compound HC0303 for 30 minutes prior to sICAM-1 abrogated induced VEGF production (FIG. 8). Data represent the mean ±SD of two separate experiments; differences in VEGF production in treated versus untreated cells (*) and ICAM-1/H2O2-treated cells were statistically significant (P<0.01) by ANOVA and Bonferroni's post-hoc test.

CC[C@H](C)C(OCc1ccccc1)[C@@H]1[C@H]([N+](=O)[O-])[C@H](c2ccccc2)N[C@]1(C)C(=O)NCCC(=O)O (stereo partly drawn) [HC0303, 3-[(2S,3R,4S,5S)-3-[(2S)-1-(Benzyloxy)-2-methylbutyl]-2-methyl-4-nitro-5-phenylpyrrolidine-2-carboxamido]propanoic acid]
B16M cell adhesion increase produced in response of VEGF [1]: abrogated | PMA-induced cancer cell adhesion to HSE cells ([2]; 100 ng/ml PMA 30 min, then HC0303 20 μg/5×10^5 cells for 30 min, P<0.01): significantly decreased | adhesion to untreated HSE cells (no PMA) ([2]; HC0303 20 μg/5×10^5 cells for 30 min): did not affect | induced VEGF production (sICAM-1 / H2O2) [3]: abrogated
